# Like-named read-outs stand apart in the source and are kept apart here.
# What was measured:
# [1] = system: Phytophthora (late blight); assay: whole plant or invertebrate; format: in vivo; details: in Solanum lycopersicum, read-out: inhibit fungal infestation
# [2] = system: Phytophthora (late blight); assay: whole plant or invertebrate; format: in vivo; details: in Solanum tuberosum, read-out: inhibit fungal infestation
# [3] = system: Plasmopara viticola; details: read-out: inhibit fungal infestation
# Procedure: 5 week old grape seedlings cv. Gutedel are treated with the formulated test compound in a spray chamber. One day after application grape plants are inoculated by spraying a sporangia suspension (4×104 sporangia/ml) on the lower leaf side of the test plants. After an incubation period of 6 days at +21° C. and 95% r. h. in a greenhouse the disease incidence is assessed.
SMILES,melting point,inhibition at 200 ppm [1],inhibition at 200 ppm [2],inhibition at 200 ppm [3]
CCS(=O)(=O)N[C@H](C(=O)NCCc1ccc(OCc2ccccc2)cc1)C(C)C,133 to 134 °C,,,
"CCS(=O)(=O)N[C@H](C(=O)NCCc1ccc(OCC#Cc2ccc(Cl)cc2)cc1)C(C)C [Compound A1.1, (S)-2-Ethanesulfonylamino-N-(2-{4-[3-(4-chloro-phenyl)-propargyloxvy]-phenyl}-ethyl)-3-methyl-butyramide]",,≥ 80%,≥ 80%,≥ 80%
